Patent publication US20110081348A1, “FUNGAL SIGNALLING AND METABOLIC ENZYMES” (priority 2004, published 2011)

Biological target: recombinant truncated ILV34 (Aspergillus fumigatus, UniProt Q4X099)
Experiment: biochemical
Method: The assay for ILV34 is based upon the ability of this enzyme to dehydrate dihydroxyacid substrates to a keto acid. […] The appearance of the keto acid product can be monitored directly at 240 nm; alternatively it can be reacted with semicarbazide and sodium acetate and monitored at 250 nm.
Assays were carried out in 96- or 384-well plates. […] Samples were incubated at room temperature and at suitable intervals the reaction was stopped and developed by the addition of 25 p. 1 semicarbazide solution (1.26% w/v semicarbazide in 1.89% w/v sodium acetate solution). The samples were incubated for 15 mins after the final semicarbazide/sodium acetate addition and then read at 250 nm.

Sequence of recombinant truncated ILV34 (Q4X099 30-606): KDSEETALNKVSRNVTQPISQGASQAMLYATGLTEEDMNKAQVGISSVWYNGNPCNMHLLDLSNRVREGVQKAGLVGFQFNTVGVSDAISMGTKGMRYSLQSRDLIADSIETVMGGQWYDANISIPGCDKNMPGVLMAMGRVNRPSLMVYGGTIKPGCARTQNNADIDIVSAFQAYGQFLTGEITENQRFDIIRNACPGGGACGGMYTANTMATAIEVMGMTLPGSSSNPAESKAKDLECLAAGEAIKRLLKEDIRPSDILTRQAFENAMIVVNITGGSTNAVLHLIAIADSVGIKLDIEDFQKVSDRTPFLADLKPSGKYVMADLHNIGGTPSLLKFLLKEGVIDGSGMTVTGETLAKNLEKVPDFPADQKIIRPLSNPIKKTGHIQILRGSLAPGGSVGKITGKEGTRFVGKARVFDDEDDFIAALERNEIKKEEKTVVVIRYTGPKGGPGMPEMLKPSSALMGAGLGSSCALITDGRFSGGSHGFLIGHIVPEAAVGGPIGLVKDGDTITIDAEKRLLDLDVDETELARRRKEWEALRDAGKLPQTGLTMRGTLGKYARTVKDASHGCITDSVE

CC(C)C(O)C(=O)O (stereo not shown) [2-hydroxy-3-methylbutyric acid]
IC50: ~10 mM
